{
  "source": "patent US20080279897A1",
  "about": "“Method of Treating Cellular Damage” (MEDVET SCIENCE PTY. LTD., priority 2005, published 2008)",
  "key": {"SphK": {"tested_on": "SphK", "test": "SphK activity in aorta and heart of STZ-induced diabetic rats", "assay_type": "in vivo, rat", "settings": "STZ-induced diabetic rats treated with insulin, 2 wk post-onset of diabetes", "procedure": "Male Sprague-Dawley rats weighing 270-290 g were housed in a room under controlled temperature conditions (22° C.) and 12/12-hr of light/dark cycles. Diabetes was induced with 80 mg/kg streptozotocin (STZ) (Sigma-Aldrich) dissolved in citrate buffer (20 mM, pH 4.5) that was administered as a single intraperitoneal injection. Control rats were injected with an equivalent volume of the vehicle only. After injection (24 h), diabetes was diagnosed by the development of hyperglycaemia (>14 mmol/L blood glucose). One-half of the diabetic rats were randomly selected to receive insulin treatment (Linplant, one implant/200 g body wt; LinShin, Canada). Blood glucose levels were monitored every 4 days using Glucostix reagent strips (Boehringer Mannheim, Indianapolis, Ind.). Two weeks after the onset of diabetes, rats were killed for the study. […]\nAs described previously (Xia et al., 1999, J. Biol. Chem. 274:34499-34505), SphK activity was routinely determined using D-erythro-sphingosine (Biomol, Plymouth Meeting, Pa.) and [γ^32P]ATP (Geneworks, Adelaide, Australia) as substrates, and defined as picomoles of S1P formed per min per mg protein. The formation of S1P in vivo was measured in the permeabilized cells as previously described (Xia et al., 1998, Proc. Natl. Acad. Sci. U.S.A 95:14196-14201)."}, "[1]": {"test": "Glycemic control in STZ-induced diabetic rats", "assay_type": "in vivo, rat", "settings": "insulin pump, within several hours", "procedure": "Male Sprague-Dawley rats weighing 270-290 g were housed in a room under controlled temperature conditions (22° C.) and 12/12-hr of light/dark cycles. Diabetes was induced with 80 mg/kg streptozotocin (STZ) (Sigma-Aldrich) dissolved in citrate buffer (20 mM, pH 4.5) that was administered as a single intraperitoneal injection. Control rats were injected with an equivalent volume of the vehicle only. After injection (24 h), diabetes was diagnosed by the development of hyperglycaemia (>14 mmol/L blood glucose). One-half of the diabetic rats were randomly selected to receive insulin treatment (Linplant, one implant/200 g body wt; LinShin, Canada). […] […] All experiments were conducted in accordance with the PC-2 procedure of Institute of Medical and Veterinary Science (IMVS) and approved by the IMVS Animal Ethics Committee."}, "sphingosine kinase": {"tested_on": "sphingosine kinase", "test": "Sphingosine kinase activity in vitro (vascular endothelial cells)", "assay_type": "cell-based"}},
  "note": "“Also recorded” adds a separate entry of the source.",
  "data": [
    {"substance": "insulin", "values": [
      {"measurement": "SphK activity in aorta of diabetic rats", "setting": "SphK", "value": "significant reduction; also recorded: completely prevented"},
      {"measurement": "SphK activity in heart of diabetic rats", "setting": "SphK", "value": "significant reduction; also recorded: completely prevented"},
      {"measurement": "glycemic control", "setting": "[1]", "value": "near euglycemia"},
      {"measurement": "inhibitory effect on sphingosine kinase activity in vitro", "setting": "sphingosine kinase", "value": "no inhibitory effect"}
    ]}
  ]
}
